Test system: trigemino-vascular system
Test: Trigeminal nerve model in anaesthetised cats (TGN stimulation-induced reduction in carotid vascular resistance)
Format: in vivo, cat
Details: for % Change in TGN-reduction in carotid vascular resistance at 4 hours following continuous iv infusion (mean ± sem) / % Changes of TGW-induced reduction in carotid vascular resistance 3 hours (mean ± sem): anaesthetised cat
Experimental: Trigeminal nerve model in anaesthetised cats
Cats were anaesthetised with α-chloralose (90-110 mg/kg i.v.) and artificially respired with room air. Body temperature was maintained at 37-38 C. A femoral artery was cannulated for recording of blood pressure and heart rate. Arterial blood flow was recorded by a Doppler flow probe placed around the right common carotid artery. Bipolar stainless electrodes were stereotaxically placed into each trigeminal ganglion. Guanethidine (3 mg/kg i.v.) was then administered and 45 min allowed for stabilisation. […]

[1] = continuous iv infusion 3.4 μmol/h, at 4 hours
[2] = intraduodenal administration 10 mg.kg, after 3 hours
[3] = intravenous administration at 3.4 μmol/h, at 4 hours

Compound | % Change in TGN-reduction in carotid vascular resistance at 4 hours following continuous iv infusion (mean ± sem) [1] [%] | % Changes of TGW-induced reduction in carotid vascular resistance 3 hours (mean ± sem) (intraduodenal 10 mg/kg in labrasol) [%] | inhibition of TGN-induced reduction in carotid vascular resistance (in words) [2] | inhibition of TGN-induced reduction in carotid vascular resistance (in words) [3] | % Change in TGN-reduction in carotid vascular resistance at 4 hours following continuous iv infusion (mean ± sem) (continuous iv infusion 11 μmol/h, at 4 hours) [%] | % Changes of TGW-induced reduction in carotid vascular resistance 3 hours (mean ± sem) (intraduodenal 10 mg/kg in methylcellulose) [%] | effects on TGN stimulation-induced reductions in carotid vascular resistance (in words) (guanethidine treated anaesthetised cat) | inhibition of trigeminal nerve mediated responses (guanethidine treated anaesthetised cat, intraduodenal bolus 10 mg/kg, 2 hours post administration, n=4) [%]
CC(=O)c1ccc2c(c1)[C@H](NC(=O)c1ccc(F)cc1)[C@@H](O)C(C)(C)O2 (relative stereo) [Compound 1, trans-6-acetyl-4S-(4-fluorobenzoylamino)-3,4-dihydro-2,2-dimethyl-2H-1-benzopyran-3R-ol] | −29.1 ± 3.7 | −43 ± 12.9 | significant inhibition | significant inhibition | – | – | – | –
CC(=O)c1ccc2c(c1)[C@H](NC(=O)c1ccc(F)c(Cl)c1)[C@H](O)C(C)(C)O2 (relative stereo) [Compound 2, cis-6-acetyl-4S-(3-chloro-4-fluorobenzoylamino)-3,4-dihydro-2,2-dimethyl-2H-1-benzopyran-3S-ol] | −30.0 ± 6.6 | – | significant inhibition | significant inhibition | −21.8 ± 14 | −69 | – | –
CC(=O)c1ccc2c(c1)[C@H](NC(=O)c1cc(F)cc(F)c1)[C@@H](O)C(C)(C)O2 (relative stereo) [Compound 3, trans-6-acetyl-4S-(3,5-difluorobenzoylamino)-3,4-dihydro-2,2-dimethyl-2H-1-benzopyran-3R-ol] | – | – | – | – | – | – | marked effects | 77

Reference: patent publication US20020010209A1, “Use of benzopyranols to treat neurological disorders” (priority 1996, published 2002)
